# Tested on: H82 cells
# Experiment: Polyamine levels in H82 cells following treatment
# Type: cell-based, human
# Settings: 10 uM, 24 hr
# Procedure: (§1) Putrescine, spermidine, and spermine polyamine levels in H157 and H82 cells following exposure to select compounds were performed. Polyamine levels were determined using the precolumn dansylation labeling, reverse-phase high-pressure liquid chromatography method as described by Kabra et al., J. Chromotography, 380:19 (1986). The results are show in Tables 6 and 11 for H157 and H82 cells respectively. The compound identifier, treatment concentration, observed polyamine level, and exposure time are listed in columns 1, 2, 3, and 4 respectively. Polyamine levels are reported as increased (inc), decrease (dec), or no change (N/C). In some case the specific levels of putrescine, spermidine, and/or spermine are listed.
row,SMILES,Polyamine Level
1,C1CCCC(CNCCCNCCCNCCCNCC2CC2)CC1 [CPCHENSpm],"slight inc, and N/C"
2,C1CCC(CNCCCNCC2CCCC(CNCCCNCC3CCCCC3)C2)CC1 (stereo not shown) [UNS-31-7A],slight dec
3,NC1CCC(NCCCNCC2CC2)C1 (stereo not shown) [UNS-31-21c],slight inc

# Tested on: H157 (non-small cell lung carcinoma) cells
# Experiment: 96 hr MTS dose response experiment in H157 cells
# Type: cell-based, human
# Settings: 96 hr exposure, a range means IC50 lies between the two tested concentrations
# Procedure: MTS dose response experiments in H157, H82, and A549 cells following a 96 hr exposure with select compounds were performed. MTS is a standard colorimetric assay used for measuring metabolic activity in cells. MTS experiments were performed by CellTiter 96® AQueuos One Solution Cell Proliferation Assay from Promega Corporation. Briefly, the cells were seeded at 3000 cells/well on a 96 well tissue culture plate containing 100 ul of medium/well and allowed to attach overnight. The medium was then aspirated and replaced with 100 ul of fresh medium containing the appropriate concentration of the compound being tested and incubated for 96 hrs at 37° C. and 5% CO2. Compounds are routinely tested at concentrations ranging from 0.1 micromolar to 50 micromolar. Wells not containing the test compound were present and used as a control. Following treatment, 20 ul of MTS reagent was added to each well and incubated at 37° C. for 1.5 hrs. The absorbance of each well was then measured at 490 nm and used to determine the metabolic activity of the cells in the presence of the test compound, relative to the control. IC50 values for the test compounds were extracted based on the results.
# Note that the results for a 72 hr exposure in addition to the 96 hr exposure are shown for compound 49-TDW-29C in the H157 cells. […] FIG. 1 depicts the results of a 96 hr MTS dose response experiments for compound 46-TDW-23c in H157, A549, H82 and Beas2B cells. FIG. 2 depicts the results of a 96 hr MTS dose response experiments for compound 49-TDW-9 in H157, A549, H82 and Beas2B cells. FIG. 3 depicts the results of a 96 hr MTS dose response experiments for compound 42-TDW-21c in H157, A549, H82 and Beas2B cells. FIG. 4 depicts the results of a 96 hr MTS dose response experiments for compound 46-TDW-19c in H157, A549, H82 and Beas2B cells. FIG. 5 depicts the results of a 96 hr MTS dose response experiments for compound 49-TDW-17c in H157, A549, H82 and Beas2B cells. FIG. 6 depicts the results of a 96 hr MTS dose response experiments for compound 40-TDW-37 in H157, A549, H82 and Beas2B cells. FIG. 7 depicts the results of a 96 hr MTS dose response experiments for compound 42-TDW-4 in H157, A549, H82 and Beas2B cells. FIG. 8 depicts the results of a 96 hr MTS dose response experiments for compound 49-TDW-29c in H157, A549, H82 and Beas2B cells. FIG. 9 depicts the results of a 96 hr MTS dose response experiments for compound 49-TDW-32c in H157, A549, H82 and Beas2B cells. FIG. 10 depicts the results of a 96 hr MTS dose response experiments for compound 46-TDW-35c in H157, A549, H82 and Beas2B cells. FIG. 11 depicts the results of a 96 hr MTS dose response experiments for compound 39-TDW-3 in H157, A549, and H82 cells. FIG. 12 depicts the results of a 96 hr MTS dose response experiments for compound 39-TDW-12c in […], and A549 cells. FIG. 13 depicts the results of a 96 hr MTS dose response experiments for compound 39-TDW-20c in H157, and H82 cells. FIG. 14 depicts the results of a 96 hr MTS dose response experiments for compounds 39-TDw-47c and 39-TDW-43 in H157 cells. FIG. 15 depicts the results of a 96 hr MTS dose response experiments for compounds 42-TDW-9, 42-TDW-4c/6, 40-TDW-35, 42-TDW-38 and BENSpm in H157 cells. FIG. 16 depicts the results of a 96 hr MTS dose response experiments for compounds 46-TDW-34c, 42-TDW-12, 40-TDW-48, 46-TDW-44c and BENSpm in H157 cells. FIG. 17 depicts the results of a 96 hr MTS dose response experiments for compounds 42-TDW-20c, 46-TDW-22, 46-TDW-39, 49-TDW-29c and BENSpm in H157 cells. FIG. 18 depicts the results of a 96 hr MTS dose response experiments for compounds 39-TDW-43, 42-TDW-48c, 46-TDW-9, 46-TDW-23c and BENSpm in H157 cells. FIG. 19 depicts the results of a 96 hr MTS dose response experiments for compounds 42-TDW-35c, 46-TDW-44 and BENSpm in H157 cells.
row,SMILES,IC50 [µM]
1,CCC(CC)CNCCCNCCCNCCCNCC(CC)CC [40-TDW-28],10 to 50
2,Cc1c(CNCCCNCCCNCCCNCc2cccc(-c3ccccc3)c2C)cccc1-c1ccccc1 [40-TDW-48],1 to 5
3,c1ccc(-c2ccccc2CNCCCCNCCCNCc2ccccc2-c2ccccc2)cc1 [42-TDW-35c],1 to 5
4,C#CC(=O)NCCCNCCCNCCCNC(=O)C#C [44-DHEJ-41],7.16 to 35.8
5,CC(C)=CCNCCCNCCCNCCCNCC=C(C)C [SV-53-18C2],10 to 50

# Same assay, conditions: Homo sapiens, NCI-H157, 96 hr exposure, a range means IC50 lies between the two tested concentrations
row,SMILES,IC50 [µM]
1,c1cc2ccc3cccc4c(CCCCNCCCNCCCNCCCNCCCCc5cc6cccc7ccc8cccc5c8c76)cc(c1)c2c34 [40-TDW-26c],10 to 50
2,CC(CCNCCCNCCC(C)NCc1cc(F)c(F)cc1F)NCc1cc(F)c(F)cc1F (stereo not shown) [44-DHEJ-5C],> 31
3,Fc1cc(F)c(CNCCCNCCCNCCCNCc2cc(F)c(F)cc2F)cc1F [44-DHEJ-10C],> 29
4,O=C(NCCCNCCCNCCCNC(=O)c1nc2ccccc2[nH]1)c1nc2ccccc2[nH]1 [44-DHEJ-40C],> 26.1
5,CCNCCCNCCCCCNCCCNCC [44-DHEJ-48C],> 50
6,CCC(CC)CNCCCCNCCCNCC(CC)CC [46-TDW-12],> 50
7,NCCCCCCNCCCCCCNCCCc1nc2ccccc2[nH]1 [50-DHEJ-3C],> 50
8,COc1cc(C(C)(C)C)c(C(C)(C)C)cc1CNC(C)CCNCCCNCCC(C)NCc1cc(C(C)(C)C)c(C(C)(C)C)cc1OC (stereo not shown) [51-DHEJ-8],> 50
9,CCCCNC(C)CCNCCCCCCCNCCC(C)NCC (stereo not shown) [51-DHEJ-49C],> 50
10,CCNCCCCCNCCCNCCCNCC [51-DHEJ-B],> 50
11,CCNCCCNCCCNCCCCCN [51-DHEJ-C],> 50
12,CCNCCCNCCCNCCC(C)N (stereo not shown) [55-DHEJ-7C],> 50
13,CCNCCCNCCCCC(C)NCCCNCC (stereo not shown) [55-DHEJ-24C],> 50
14,CC(N)CCNCCCNCc1ccc(-c2ccccc2)cc1 (stereo not shown) [55-DHEJ-26],> 50
15,CCNCCCN(CCCNCC)CCCNCC [55-DHEJ-31C],> 50
16,CCNCCCNCCCNCCC(C)NCC1CC1 (stereo not shown) [55-DHEJ-37C],> 50
17,CC(C)CNCCCNCCCNCCCNCC(C)C [DG-52-29C],> 50
18,N=C(NCCCNCCCCNCCCNC(=N)NCCC(c1ccccc1)c1ccccc1)NCCC(c1ccccc1)c1ccccc1 [XBI-54-8B],> 50
19,N=C(NCCCNCCCCNCCCNC(=N)NCC(c1ccccc1)c1ccccc1)NCC(c1ccccc1)c1ccccc1 [XBI-54-9B],> 50
20,CCNCCCNCCCNCCCCN [YZ33046],> 10

# The remaining lines, values ahead:
row,IC50 [µM],SMILES
1,5 to 10,CCNCCCNCCCCNCCC(c1ccccc1)c1ccccc1 [42-TDW-40c]
2,21.9,O=C(CCc1nc2ccccc2[nH]1)NCCCNCCCNCCCNC(=O)CCc1nc2ccccc2[nH]1 [44-DHEJ-38]
3,1 to 5,CCNCCCNCCCCCNCCCN [44-DHEJ-49]
4,10 to 50,CC(CCNCCCCCCCNCCC(C)NCC(F)(F)F)NCC(F)(F)F (stereo not shown) [51-DHEJ-18]
5,10 to 50,CCNCCCNCCCCCNCCCNCC(C)CC (stereo not shown) [51-DHEJ-A]
6,10 to 50,CC(CCNCCCNCCC(C)NCC1CC1)NCC1CC1 (stereo not shown) [55-DHEJ-35C]
7,10 to 50,CNC(=N)NCCCNCCCNCCCNC(=N)NC [B179-1]
8,5 to 10,CNC(=N)NCCCNCCCCCCCNCCCNC(=N)NC [B181]
9,5 to 10,C/N=C(\NC)NCCCNCCCNCCCN/C(=N/C)NC [B182]
10,5 to 10,N=C(NCCCNCCCNCCCNC(=N)Nc1ccccc1)Nc1ccccc1 [B188-2]
11,50,N=C(NCCCNCCCCCCCNCCCNC(=N)Nc1ccccc1)Nc1ccccc1 [B205′-1]
12,0.5 to 1,CCNCCCNCCCNCCCNC(C)CC (stereo not shown) [DG-52-27C]
13,1,CCNCCCNCCCNCCCNC(C)C [DG-52-28]
14,10 to 50,N=C(NCCCNCCCCCCCNCCCNC(=N)NC(=N)NCC(c1ccccc1)c1ccccc1)NC(=N)NCC(c1ccccc1)c1ccccc1 [XBI-54-11C]
15,10 to 50,N=C(NCCCNCCCNCCCNC(=N)NC(=N)NCC(c1ccccc1)c1ccccc1)NC(=N)NCC(c1ccccc1)c1ccccc1 [XBI-54-12C]
16,10 to 50,N=C(NCCCNCCCNCCCNC(=N)NC(=N)NCCC(c1ccccc1)c1ccccc1)NC(=N)NCCC(c1ccccc1)c1ccccc1 [XBI-54-12D]
17,10 to 50,N=C(NCCCNCCCCCCCNCCCNC(=N)NC(=N)NCCC(c1ccccc1)c1ccccc1)NC(=N)NCCC(c1ccccc1)c1ccccc1 [XBI-54-13B]
18,10 to 50,N=C(NCCCNCCCCNCCCNC(=N)NC(=N)NCCC(c1ccccc1)c1ccccc1)NC(=N)NCCC(c1ccccc1)c1ccccc1 [XBI-54-13D]
19,10 to 50,N=C(NCCCNCCCCNCCCNC(=N)NC(=N)NCC(c1ccccc1)c1ccccc1)NC(=N)NCC(c1ccccc1)c1ccccc1 [XBI-54-14B]
20,> 10,NCCCCCNCCCNCCCNCCCCN [YZ33035]
21,> 10,NCCCCCNCCCNCCCNCCCCCN [YZ33041]
22,~1,CCNCCCNCCCNCCCCNCC1CC1 [YZ33049]
23,1 to 10,CCCCNCCCCNCCCCNCCCNCC [YZ33049c]
24,~1,CCNCCCCNCCCNCCCNCC [YZ33050c]

# Tested on: H157 (non-small cell lung carcinoma) cells
# Experiment: Polyamine levels in H157 cells following treatment
# Type: cell-based, human
# Settings: 10 uM, 24 hr, inc = increased, dec = decrease, N/C = no change
# Procedure: as §1
row,SMILES,Polyamine Level
1,"CCNCCCNCCCNCCCNCC [BENSpm, reference compound]",N/C
2,C1CCCC(CNCCCNCCCNCCCNCC2CC2)CC1 [CPCHENSpm],slight dec
3,C1CCC(CNCCCNCC2CCCC(CNCCCNCC3CCCCC3)C2)CC1 (stereo not shown) [UNS-31-7A],slight dec
4,NC1CCC(NCCCNCC2CC2)C1 (stereo not shown) [UNS-31-21c],dec

# Same assay, conditions: spermine (Spm), 10 uM, 24 hr
row,SMILES,"Polyamine Level, Spm"
1,C1CCCC(CNCCCNCCCNCCCNCC2CC2)CC1 [CPCHENSpm],inc
2,NC1CCC(NCCCNCC2CC2)C1 (stereo not shown) [UNS-31-21c],same

# From patent US8148577B2, “Polyamines useful as anti-parasitic and anti-cancer therapeutics and as lysine-specific demethylase inhibitors” (The Johns Hopkins University, priority 2005, dated 2012)
